These results are taken from patent publication US20150168420A1, “BIOORTHOGONAL CHEMICAL INDUCERS OF REVERSIBLE DIMERIZATION FOR CONTROL OF PROTEIN FUNCTION IN CELLS” (MAX-PLANCK-GESELLSCHAFT ZUR FÖRDERUNG DER WISSENSCHAFTEN …, priority 2012, published 2015).

For one assay, the target named is eDHFR and FKBP(F36V) (UniProt P0ABQ4+P62942, F37V). As to the kind of experiment: Size exclusion chromatography and SDS-PAGE of eDHFR / FKBP(F36V) mixture with ligand. Type of assay: binding. How it is done: FIG. 1: Efficiency and specificity of SLF′-TMP (compound 13) binding (comp. example 2). • In the absence of SLF′-TMP (solid line) or in the presence of 100 μM SLF′-TMP (compound 13, dashed line). • a) size exclusion chromatography profile • b) SDS-PAGE analysis
A size exclusion chromatography profile of a mixture of 100 μM eDHFR and FKBP(F36V) was performed in the absence or the presence of 100 μM SLF′-TMP (compound 13) (see FIG. 1a).
A SDS-PAGE analysis of fractions from the gel filtration was carried out in the absence and the presence of the ligand SLF′-TMP (compound 13), respectively (see FIG. 1b).
In general terms: Size exclusion chromatography separates by hydrodynamic size, large species first.

Assay [1] addresses ECFP-eDHFR and YFP-FKBP(F36V) (UniProt P0ABQ4+P62942, F37V). As to the kind of experiment: FRET titration of ligand-induced heterodimerization of recombinant fusion proteins. Format: binding. The conditions noted are these: 400 nM ECFP-eDHFR and 400 nM YFP-FKBP(F36V).

For `CCC(C(=O)N1CCCCC1C(=O)O[C@H](CCc1ccc(OC)c(OC)c1)c1cccc(OCC(=O)NCCCOCCOCCOCCCNC(=O)COc2c(OC)cc(Cc3cnc(N)nc3N)cc2OC)c1)c1cc(OC)c(OC)c(OC)c1` (stereo partly shown) [SLF′-TMP], at eDHFR and FKBP(F36V) (100 μM eDHFR and FKBP(F36V), 100 μM ligand), the “binding to FKBP(F36V) and eDHFR by size exclusion chromatography” value is on record as “binds effectively”. At eDHFR and FKBP(F36V) (presence versus absence of ligand), the “binding to FKBP(F36V) and eDHFR by SDS-PAGE of gel filtration fractions” value was “binds to FKBP(F36V) and eDHFR”. The “FRET signal (ratio of fluorescence 523 nm / 475 nm) upon titration” value in assay [1] is “dose-dependent increase”. In addition, the Kd in assay [1] (quadratic fit, read-out: dissociation constant Kd from FRET titration) is 120 ± 40 nM.
